Data on 33 compounds can be found in a melting point compilation (Tetko et al.; mined from patent text by program, amines drawn as free bases though some values may be those of a salt).

SMILES strings stand for the structures.

As for `CCCCN(CCCC)c1cc(OC)c(C=Cc2ccc(C=O)s2)c(OC)c1`, the melting point lay within 105 to 106 °C.
`CCOC(=O)C(=O)Nc1ccc(S(=O)(=O)NC(=O)C(=O)OCC)c(C(F)(F)F)c1` returned a melting point of 161 to 162 °C.
`CCCCCCCCOc1ccc(-c2ccc(O)c(F)c2F)cc1` yielded a melting point of 145 °C.
For `CC(c1cccc(-c2ncc(OCCCN(C)C)cn2)c1)n1nc(-c2cccc(C#N)c2)ccc1=O` (stereo not drawn) the value was 105 to 107 °C.
`COc1ccc2cc3c(c(-c4ccc(C)cc4)c2c1)CNC3=O`: the melting point fell in the range of 298 to 301 °C.
`Cc1ccc(S(=O)(=O)n2c(C3(O)C=CC(=O)c4ccccc43)cc3ccccc32)cc1` (stereo not drawn): the melting point fell in the range of 110 to 112 °C.
Take `COc1cc(COc2nn(-c3ccccc3)cc2C=O)ccc1OCc1nc(-c2cccc(OS(C)(=O)=O)c2)oc1C`: the melting point lay within 146 to 148 °C.
In turn, `CCCCCN1C(=O)C(CCC#N)(NC(=O)c2ccc(Cl)c(Cl)c2)c2ccccc21` (stereo not drawn) showed a melting point of 79 to 84 °C.
For `COc1ccc(C(=O)Oc2ccccc2)c(O)c1`, the melting point lay within 61.5 to 62.5 °C.
For `COc1ccc(CN2C(=O)C3(COc4cc5c(C)noc5cc43)c3ccccc32)cc1` (stereo not drawn) the value was 183 to 184 °C; for `CCOC(=O)Oc1ccc(S(=O)(=O)N2c3cc(Br)ccc3-n3cccc3[C@@H]2CC)cc1`, 137 to 139 °C; for `COCNC(=O)SC(C(=O)O)c1ccccc1` (stereo not drawn), 111 to 112 °C.
In turn, `CCCNc1cccc2c1C(=O)c1cccc(NCCC)c1C2=O` gave a melting point of 153 to 154 °C.
In turn, `CC1=C(C#N)C(=C(C#N)C#N)OC1(C)c1ccc(Cl)cc1Cl` (stereo not drawn) gave a melting point of 239 to 240 °C.
As to `COc1cc(C(=O)NN2CCN(C)CC2)ccc1Nc1ncc2c(n1)N(C1CCCC1)CC(F)(F)C(=O)N2C`, the melting point was 168 to 174 °C.
`O=S(=O)(CC(Cl)C(F)=C(F)F)c1ccccc1` (stereo not drawn) gave a melting point of 45 to 47 °C.
Regarding `CC(=NNC(=O)c1ccncc1)c1ccc2nnn(Cc3ccc4ncccc4c3)c2n1`, the melting point was 239 to 241 °C.
`CC(=O)Nc1ccc(C(=O)NC(C)(C)C)cc1` registered a melting point of 119 to 121 °C.
In turn, `CNC(=O)c1ccn2c(C(=O)N3CCNCC3)c(Cc3cccc(F)c3C)c(-c3ccccc3)c2c1` had a melting point of 205 °C.
Regarding `CC(C)(C)OC(=O)NCc1ccc(OCCC2Oc3ccccc3N(Cc3ccc(Cl)cc3)C2=O)cc1` (stereo not drawn), the melting point fell in the range of 121 to 122 °C.
`CCN(CC)C(=O)CC1CCN(Cc2cnc3c(C)c(NC(=O)c4ccc(-c5ccc(F)cc5)cc4)ccc3c2)CC1` gave a melting point of 158 to 160 °C.
`CCCCCCC1(C(=O)NCCC)c2ccccc2Oc2ccccc21` displayed a melting point of 76 to 77.5 °C.
`CN(C)Cc1ccc(CSCCNc2ncc(Cc3cccnc3)c(=O)[nH]2)cc1` registered a melting point of 124 to 126 °C.
For `NC(=O)c1cccc2c1C1(COc3cc4c(cc31)OCCO4)CN2Cc1ccccn1` (stereo not drawn) the value was 214 to 215 °C; for `COc1ccc(-c2ocnc2-c2cc(OC)c(Cl)c(OC)c2)cc1N`, 146 to 148 °C; for `CC1(C)CC(OC(=O)CCCCCCCCC(=O)OC2CC(C)(C)N(O)C(C)(C)C2)CC(C)(C)N1O`, 101 °C.
Take `O=Cc1ccnc2c(NC(=O)c3c(Cl)cccc3Cl)cccc12`: the melting point came out at 239 °C.
In turn, `CCOC(=O)c1c(O)c2cc(Cl)ccc2c(=O)n1C` had a melting point of 110 to 111 °C.
Turning to `COc1ccc2c(c1)CCN(C(=O)OCc1ccccc1)C21CCC(C(=O)O)(C(=O)O)CC1`, the melting point was 193 to 194 °C.
For `CCC12CCC3=C(CCc4cc(O)ccc43)C1=CCC2=O` (stereo not drawn) the value was 153 to 156 °C; for `CC1(CN2CCC(N3CCNC3=O)CC2)OCc2ccccc2-n2cccc21` (stereo not drawn), 197 to 199 °C.
For the compound `O=C1Nc2c(ccc3ccccc23)SC1=Cc1ccc(Cl)cc1`, the melting point lay in the range of 277 to 279 °C.
The compound `CC(C)(C)OC(=O)N[C@H]1CC[C@H](CCN2CCN(c3cccc(Cl)c3Cl)CC2)CC1` had a melting point of 150 to 154 °C.
